From patent US8987445B2, “Sulfonamide compounds having TRPM8 antagonistic activity” (Mitsubishi Tanabe Pharma Corporation, priority 2011, dated 2015)

Target: human TRPM8 (Homo sapiens (Human), UniProt Q7Z2W7)
Assay: TRPM8 inhibition assay (menthol-induced calcium influx, FDSS)
Format: cell-based
Conditions: HEK293 cells stably expressing human TRPM8; 100 μM menthol; Fura-2AM Ca2+ signal; read-out: TRPM8 Blocking Test (IC50)
Procedure: The functional activity of compounds was determined by measuring changes in intracellular calcium concentration using a Ca^2+ sensitive fluorescent dye. The changes in fluorescent signal were monitored by the cell imaging technology by Hamamatsu Photonics's Functional Drug Screening System (FDSS). […] HEK293 cells stably expressing human TRPM8 were grown in flasks. On assay day, the culture medium was removed, and cells were washed with phosphate-buffered saline (PBS) and harvested with PBS containing 2 mM ethylenediaminetetraacetic acid, disodium salt (EDTA, 2Na). […] Subsequently, suspended 20,000 to 50,000 cells per well were incubated with test compound (at varying concentrations) in each well for 20 min at 37° C. Changes in intracellular Ca^2+ evoked by 100 μM menthol were measured for 2 min using FDSS. IC50 vales were determined from four-point concentration-response studies. Curves were generated using the average of quadruplicate wells for each data point.

human TRPM8, sequence (Q7Z2W7 whole entry): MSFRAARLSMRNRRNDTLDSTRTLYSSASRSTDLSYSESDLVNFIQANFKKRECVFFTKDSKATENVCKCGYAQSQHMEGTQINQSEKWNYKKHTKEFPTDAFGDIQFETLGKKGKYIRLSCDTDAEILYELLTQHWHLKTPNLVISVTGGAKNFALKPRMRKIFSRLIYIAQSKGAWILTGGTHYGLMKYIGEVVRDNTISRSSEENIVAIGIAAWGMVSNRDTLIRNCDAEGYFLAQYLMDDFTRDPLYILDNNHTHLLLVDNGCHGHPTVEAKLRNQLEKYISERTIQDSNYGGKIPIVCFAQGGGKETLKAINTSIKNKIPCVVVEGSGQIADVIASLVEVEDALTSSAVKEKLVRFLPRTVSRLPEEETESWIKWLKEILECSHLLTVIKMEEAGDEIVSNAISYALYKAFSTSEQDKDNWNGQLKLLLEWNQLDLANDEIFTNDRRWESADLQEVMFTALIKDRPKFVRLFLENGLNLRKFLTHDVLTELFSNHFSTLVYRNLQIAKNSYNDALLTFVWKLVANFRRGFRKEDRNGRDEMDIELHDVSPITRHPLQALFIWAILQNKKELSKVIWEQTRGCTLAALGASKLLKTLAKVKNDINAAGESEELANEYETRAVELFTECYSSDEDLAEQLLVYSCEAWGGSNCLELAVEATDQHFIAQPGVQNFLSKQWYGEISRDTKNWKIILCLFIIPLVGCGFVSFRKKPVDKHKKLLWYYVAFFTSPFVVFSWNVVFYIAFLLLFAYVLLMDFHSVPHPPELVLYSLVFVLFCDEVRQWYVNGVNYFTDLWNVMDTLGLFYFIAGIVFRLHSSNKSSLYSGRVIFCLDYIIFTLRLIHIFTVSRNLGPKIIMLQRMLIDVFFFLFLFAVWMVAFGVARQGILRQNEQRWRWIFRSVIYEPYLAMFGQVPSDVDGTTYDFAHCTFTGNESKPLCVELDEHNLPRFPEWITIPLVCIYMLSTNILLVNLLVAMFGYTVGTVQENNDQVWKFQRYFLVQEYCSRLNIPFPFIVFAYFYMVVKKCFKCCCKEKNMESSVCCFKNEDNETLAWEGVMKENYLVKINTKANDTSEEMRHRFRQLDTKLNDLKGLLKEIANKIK

IC50	Compound
0.013 µM	CONC(=O)c1ccc(S(=O)(=O)N(Cc2ccc(OC(F)(F)F)cc2)c2ncc3ccccc3c2C)cc1 [Example 124, N-methoxy-4-({(4-methylisoquinolin-3-yl)[4-(trifluoromethoxy)benzyl]amino}sulfonyl)benzamide]
0.014 µM	Cc1c(N(Cc2ccc(OC(F)(F)F)cc2)S(=O)(=O)c2ccc(C(=O)NC#N)cc2)ncc2ccccc12 [Example 239]
0.0006 µM	Cc1c(N(Cc2ccc(C(F)(F)C3CC3)c(Cl)c2)S(=O)(=O)c2ccc(C(=O)O)cc2)ncc2ccccc12 [Example 201]
0.078 µM	Cc1c(N(Cc2ccc3c(c2)CCC3(O)C(F)(F)F)S(=O)(=O)c2ccc(C(=O)O)cc2)ncc2ccccc12 (stereo not shown) [Example 173]
0.0035 µM	COC1(C(F)(F)F)CCc2cc(CN(c3ncc4ccccc4c3C)S(=O)(=O)c3ccc(C(=O)O)cc3)ccc21 (stereo not shown) [Example 223]
0.031 µM	Cc1c(N(Cc2cccc(C(F)(F)C3CC3)c2)S(=O)(=O)c2ccc(C(=O)O)cc2)ncc2ccccc12 [Example 205]
0.239 µM	O=C(O)c1ccc(S(=O)(=O)N(Cc2ccc(OC(F)(F)F)cc2)c2cc3c(C4CC4)cccc3cn2)cc1 [Example 217]
0.103 µM	CNC(=O)c1ccc(S(=O)(=O)N(Cc2ccc(OC(F)(F)F)cc2)c2ncc3ccccc3c2C)cc1 [Example 238]
0.0062 µM	CCc1c(N(Cc2ccc(OC(F)(F)F)cc2)S(=O)(=O)c2ccc(C(=O)O)cc2)ncc2ccccc12 [Example 155]
0.015 µM	Cc1c(N(Cc2ccc(OC(F)(F)F)cc2)S(=O)(=O)c2ccc(C(=O)O)cc2)nc(Br)c2ccccc12 [Example 129]
0.0031 µM	Cc1cccc2cnc(N(Cc3ccc(OC(F)(F)F)cc3)S(=O)(=O)c3ccc(C(=O)O)cc3)c(C)c12 [Example 137]
0.0021 µM	Cc1c(N(C2CCc3cc(OC(F)(F)F)ccc32)S(=O)(=O)c2ccc(C(=O)O)cc2)ncc2ccccc12 (stereo not shown) [Example 179]
0.095 µM	CC(=O)c1ccc(S(=O)(=O)N(Cc2ccc(OC(F)(F)F)cc2)c2ncc3ccccc3c2C)cc1 [Example 152, 4-acetyl-N-(4-methylisoquinolin-3-yl)-N-[4-(trifluoromethoxy)benzyl]benzenesulfonamide]
0.109 µM	Cc1ccc2c(C)c(N(Cc3ccc(OC(F)(F)F)cc3)S(=O)(=O)c3ccc(C(=O)O)cc3)ncc2c1 [Example 131]
0.0039 µM	Cc1c(N(Cc2ccc(CC3(C(F)(F)F)CC3)cc2)S(=O)(=O)c2ccc(C(=O)O)cc2)ncc2ccccc12 [Example 193]
0.128 µM	O=C(O)c1ccc(S(=O)(=O)N(c2ncc3ccccc3c2C2CC2)C2CCc3cc(OC(F)(F)F)ccc32)cc1 (stereo not shown) [Example 187]
0.0015 µM	Cc1c(N(Cc2ccc(C(F)(F)C3CC3)c(F)c2)S(=O)(=O)c2ccc(C(=O)O)cc2)ncc2ccccc12 [Example 203]

The next lines start with the compound.

Compound	IC50
Cc1c(N(Cc2ccc(C(C)(O)C(F)(F)F)c(Cl)c2)S(=O)(=O)c2ccc(C(=O)O)cc2)ncc2ccccc12 (stereo not shown) [Example 172]	0.015 µM
COC(C)(c1ccc(CN(c2ncc3ccccc3c2C)S(=O)(=O)c2ccc(C(=O)O)cc2)cc1Cl)C(F)(F)F (stereo not shown) [Example 222]	0.0016 µM
Cc1c(N(Cc2ccc(-c3ccccc3F)cc2)S(=O)(=O)c2ccc(C(=O)O)cc2)ncc2ccccc12 [Example 88]	0.01 µM
Cc1c(N(Cc2cc3cc(Cl)ccc3s2)S(=O)(=O)c2ccc(C(=O)O)cc2)ncc2ccccc12 [Example 200]	0.0054 µM
Cc1c(N(Cc2ccc(OC(F)(F)F)cc2)S(=O)(=O)c2ccc(C(C)(C)O)cc2)ncc2ccccc12 [Example 125, 4-(1-hydroxy-1-methylethyl)-N-(4-methylisoquinolin-3-yl)-N-[4-(trifluoromethoxy)benzyl]benzenesulfonamide]	0.062 µM
Cc1c(N(Cc2cc(F)c3c(c2)CCC3)S(=O)(=O)c2ccc(C(=O)O)cc2)ncc2ccccc12 [Example 175]	0.0044 µM
Cc1c(N(Cc2ccc3c(c2)CC(C)(C)C3)S(=O)(=O)c2ccc(C(=O)O)cc2)ncc2ccccc12 [Example 62]	0.0083 µM
CCc1nc(N(Cc2ccc(OC(F)(F)F)cc2)S(=O)(=O)c2ccc(C(=O)O)cc2)c(C)c2ccccc12 [Example 214]	0.0081 µM
O=C(O)c1ccc(S(=O)(=O)N(Cc2ccc(OC(F)(F)F)cc2)c2cc3ccccc3c(C3CC3)n2)cc1 [Example 216]	0.066 µM
Cc1cc2ccccc2nc1N(Cc1ccc(C(F)(F)C2CC2)c(F)c1)S(=O)(=O)c1ccc(C(=O)O)cc1 [Example 204]	0.0031 µM
Cc1c(N(Cc2ccc(C(C)(C)C)cc2)S(=O)(=O)c2ccc(C(=O)O)cc2)ncc2ccccc12 [Example 23]	0.0018 µM
Cc1c(N(Cc2ccc(OC(F)(F)F)cc2)S(=O)(=O)c2ccc(C(=O)O)cc2)nc(C(F)(F)F)c2ccccc12 [Example 108, 4-({[4-methyl-1-(trifluoromethyl)isoquinolin-3-yl][4-(trifluoromethoxy)benzyl]amino}sulfonyl)benzoic acid]	0.021 µM
Cc1c(N(Cc2ccc(-c3ccccc3)nc2)S(=O)(=O)c2ccc(C(=O)O)cc2)ncc2ccccc12 [Example 70]	0.095 µM
Cc1c(N(Cc2ccc3c(Cl)cn(C)c3c2)S(=O)(=O)c2ccc(C(=O)O)cc2)ncc2ccccc12 [Example 122, 4-{[[(3-chloro-1-methyl-1H-indol-6-yl)methyl](4-methylisoquinolin-3-yl)amino]sulfonyl}benzoic acid]	0.057 µM
COC(C)(c1ccc(CN(c2ncc3ccccc3c2C)S(=O)(=O)c2ccc(C(=O)O)cc2)cc1)C(F)(F)C(F)(F)F (stereo not shown) [Example 224]	0.0059 µM
Cc1c(N(Cc2ccc3c(c2)COC3(C)C)S(=O)(=O)c2ccc(C(=O)O)cc2)ncc2ccccc12 [Example 83]	0.01 µM
Cc1c(N(Cc2ccc(OC(F)(F)F)cc2)S(=O)(=O)c2ccc(C(=O)O)cc2)nc(-c2cccnc2)c2ccccc12 [Example 213]	0.116 µM
O=C(O)c1ccc(S(=O)(=O)N(Cc2ccc(OC(F)(F)F)cc2)c2nc(C3CC3)c3ccccc3c2C2CC2)cc1 [Example 232]	0.01 µM
Cc1c(N(Cc2ccc(OC(F)(F)F)cc2)S(=O)(=O)c2ccc(C(=O)O)cc2)nc(N2CCCC2)c2ccccc12 [Example 99, 4-({(4-methyl-1-pyrrolidin-1-ylisoquinolin-3-yl)[4-(trifluoromethoxy)benzyl]amino}sulfonyl)benzoic acid]	0.029 µM

Compound	IC50
Cc1c(N(Cc2ccc(CC3CC3)c(F)c2)S(=O)(=O)c2ccc(C(=O)O)cc2)ncc2ccccc12 [Example 170]	0.0029 µM
Cc1c(N(Cc2cccc3ccccc23)S(=O)(=O)c2ccc(C(=O)O)cc2)ncc2ccccc12 [Example 31]	0.065 µM
Cc1c(N(Cc2ccc3ccn(C)c3c2)S(=O)(=O)c2ccc(C(=O)O)cc2)ncc2ccccc12 [Example 119, 4-{[[(1-methyl-1H-indol-6-yl)methyl](4-methylisoquinolin-3-yl)amino]sulfonyl}benzoic acid]	0.092 µM
Cc1c(N(Cc2ccc(CC3CC3)cc2)S(=O)(=O)c2ccc(C(=O)O)cc2)ncc2ccccc12 [Example 24]	0.0046 µM
Cc1c(N(Cc2cc3cc(F)cc(F)c3s2)S(=O)(=O)c2ccc(C(=O)O)cc2)ncc2ccccc12 [Example 195]	0.006 µM
Cc1c(N(Cc2ccc3c(c2)CCC3(C)C)S(=O)(=O)c2ccc(C(=O)O)cc2)ncc2ccccc12 [Example 61]	0.0013 µM
Cc1c(N(Cc2ccc(-c3ccccc3)cn2)S(=O)(=O)c2ccc(C(=O)O)cc2)ncc2ccccc12 [Example 67]	0.067 µM
Cc1cc2ccccc2nc1N(Cc1ccc2c(c1)CCCC2)S(=O)(=O)c1ccc(C(=O)O)cc1 [Example 180]	0.0069 µM
Cn1ccc2c(N(Cc3ccc(OC(F)(F)F)cc3)S(=O)(=O)c3ccc(C(=O)O)cc3)ncc(Cl)c21 [Example 211]	0.987 µM
Cc1c(N(Cc2ccc(C3CC3)cc2)S(=O)(=O)c2ccc(C(=O)O)cc2)ncc2ccccc12 [Example 41]	0.012 µM
Cc1c(N(Cc2nc3ccccc3o2)S(=O)(=O)c2ccc(C(=O)O)cc2)ncc2ccccc12 [Example 127]	0.195 µM
Cc1c(N(Cc2ccc(OC(F)(F)F)cc2)S(=O)(=O)c2ccc(C(=O)O)cc2)nc(OC(C)C)c2ccccc12 [Example 100, 4-({(1-isopropoxy-4-methylisoquinolin-3-yl)[4-(trifluoromethoxy)benzyl]amino}sulfonyl)benzoic acid]	0.021 µM
Cc1c(N(Cc2ccc(F)c(C(F)(F)F)c2)S(=O)(=O)c2ccc(C(=O)O)cc2)nc(C2CC2)c2ccccc12 [Example 132]	0.0038 µM
CCOC(C)(c1ccc(CN(c2ncc3ccccc3c2C)S(=O)(=O)c2ccc(C(=O)O)cc2)cc1F)C(F)(F)F (stereo not shown) [Example 220]	0.005 µM
Cc1c(N(Cc2cc3cccc(Cl)c3s2)S(=O)(=O)c2ccc(C(=O)O)cc2)ncc2ccccc12 [Example 199]	0.0039 µM
CCOC(C)(c1ccc(CN(c2ncc3ccccc3c2C)S(=O)(=O)c2ccc(C(=O)O)cc2)cc1)C(F)(F)F (stereo not shown) [Example 14, 4-{[[4-(1-ethoxy-2,2,2-trifluoro-1-methylethyl)benzyl](4-methylisoquinolin-3-yl)amino]sulfonyl}benzoic acid]	0.0047 µM
O=C(O)c1ccc(S(=O)(=O)N(Cc2ccc(OC(F)(F)F)cc2)c2cc3c(Cl)cccc3cn2)cc1 [Example 102, 4-({(5-chloroisoquinolin-3-yl)[4-(trifluoromethoxy)benzyl]amino}sulfonyl)benzoic acid]	0.115 µM
Cc1c(N(CC2CCN(c3ccccc3)CC2)S(=O)(=O)c2ccc(C(=O)O)cc2)ncc2ccccc12 [Example 85]	0.079 µM
Cc1cc2ccc(Cl)cc2nc1N(Cc1ccc(OC(F)(F)F)cc1)S(=O)(=O)c1ccc(C(=O)O)cc1 [Example 134]	0.695 µM
